Calls of active or inactive are those of the source.
Experiments:
Escherichia coli = assay: microbe, parasite or virus in culture
BJ [1] = assay: cytotoxicity toward BJ-TERT fibroblasts, dose response, cell-based, RAS-independent, luminescence (AID 1933); assay type: functional; conditions: Homo sapiens
BJ [2] = assay: cells; assay type: functional, cell-based; conditions: Homo sapiens
BJ [3] = assay: cytotoxicity toward BJ-TERT-LT-ST fibroblasts, dose response, cell-based, RAS-independent, luminescence (AID 1935); assay type: functional; conditions: Homo sapiens;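 further: BJ fibroblasts immortalized with TERT plus LT and ST oncogenes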
[4] = cytotoxicity toward DRD oncogenic fibroblasts, dose response, cell-based, non-viral oncogenic, luminescence (AID 1934); assay type: functional; conditions: Homo sapiens
BJ [5] = assay: cytotoxicity toward Ras-transformed BJeLR fibroblasts, dose response, cell-based, alamar blue fluorescence, cherrypicked samples (AID 2631); assay type: functional; conditions: Homo sapiens;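 further: confirmatory dose-response assay in RAS-dependent BJ fibroblasts engineered with TERT, LT and ST, with cytotoxicity read by fluorescence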
Caspase-3 = molecular target: T1, Caspase-3 (Homo sapiens, UniProt P42574); assay type: functional;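 further: Dose-response selectivity test against caspase-3 for candidate inhibitors of sentrin-specific proteases (SENPs)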
T1 sequence (P42574 whole entry): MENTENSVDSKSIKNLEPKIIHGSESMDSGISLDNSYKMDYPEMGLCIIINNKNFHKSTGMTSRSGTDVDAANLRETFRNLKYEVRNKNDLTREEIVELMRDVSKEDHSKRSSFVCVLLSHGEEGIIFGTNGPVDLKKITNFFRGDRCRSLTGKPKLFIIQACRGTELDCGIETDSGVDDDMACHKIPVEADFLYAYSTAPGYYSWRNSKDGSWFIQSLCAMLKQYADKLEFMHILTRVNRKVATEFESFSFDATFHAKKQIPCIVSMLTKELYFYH

[6] = molecular target: T2, Sentrin-specific protease 7 (Homo sapiens, UniProt Q9BQF6); assay type: functional;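 further: Luminescence-based dose-response confirmation of ultra-high-throughput screening hits, measuring inhibition of SENP7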
T2 sequence (Q9BQF6 whole entry): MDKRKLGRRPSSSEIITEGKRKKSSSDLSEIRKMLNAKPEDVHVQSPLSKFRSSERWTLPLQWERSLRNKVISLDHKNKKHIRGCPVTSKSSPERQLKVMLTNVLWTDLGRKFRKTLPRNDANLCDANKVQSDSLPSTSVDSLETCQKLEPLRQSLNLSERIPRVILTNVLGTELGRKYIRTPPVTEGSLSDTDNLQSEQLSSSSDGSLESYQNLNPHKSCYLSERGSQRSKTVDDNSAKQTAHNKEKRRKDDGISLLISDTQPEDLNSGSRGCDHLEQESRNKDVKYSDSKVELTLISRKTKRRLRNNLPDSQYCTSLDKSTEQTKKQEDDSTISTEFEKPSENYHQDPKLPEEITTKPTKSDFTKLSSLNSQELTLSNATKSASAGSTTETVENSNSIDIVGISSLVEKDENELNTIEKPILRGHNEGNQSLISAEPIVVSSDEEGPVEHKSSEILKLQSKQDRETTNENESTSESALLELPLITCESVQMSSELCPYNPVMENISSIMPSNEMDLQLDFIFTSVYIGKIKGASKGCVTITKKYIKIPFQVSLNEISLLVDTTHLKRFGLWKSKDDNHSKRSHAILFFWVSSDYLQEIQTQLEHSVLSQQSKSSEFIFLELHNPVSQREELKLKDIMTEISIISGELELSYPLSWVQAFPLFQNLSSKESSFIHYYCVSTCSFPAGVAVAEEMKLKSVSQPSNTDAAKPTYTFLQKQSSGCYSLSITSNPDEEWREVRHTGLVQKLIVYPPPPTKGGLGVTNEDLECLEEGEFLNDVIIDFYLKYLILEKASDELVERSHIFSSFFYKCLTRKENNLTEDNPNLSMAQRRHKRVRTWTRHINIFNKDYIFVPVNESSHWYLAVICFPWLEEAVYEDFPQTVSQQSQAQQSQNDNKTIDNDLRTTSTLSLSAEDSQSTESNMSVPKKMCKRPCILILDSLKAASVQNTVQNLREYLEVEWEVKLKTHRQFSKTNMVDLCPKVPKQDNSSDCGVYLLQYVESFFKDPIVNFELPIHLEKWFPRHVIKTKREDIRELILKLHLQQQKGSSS

[7] = molecular target: T3, Sentrin-specific protease 6 (Homo sapiens, UniProt Q9GZR1); assay type: functional;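 further: Luminescence-based dose-response confirmatory assay of SENP6 inhibition, following up an ultra-high-throughput screen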
T3 sequence (Q9GZR1 whole entry): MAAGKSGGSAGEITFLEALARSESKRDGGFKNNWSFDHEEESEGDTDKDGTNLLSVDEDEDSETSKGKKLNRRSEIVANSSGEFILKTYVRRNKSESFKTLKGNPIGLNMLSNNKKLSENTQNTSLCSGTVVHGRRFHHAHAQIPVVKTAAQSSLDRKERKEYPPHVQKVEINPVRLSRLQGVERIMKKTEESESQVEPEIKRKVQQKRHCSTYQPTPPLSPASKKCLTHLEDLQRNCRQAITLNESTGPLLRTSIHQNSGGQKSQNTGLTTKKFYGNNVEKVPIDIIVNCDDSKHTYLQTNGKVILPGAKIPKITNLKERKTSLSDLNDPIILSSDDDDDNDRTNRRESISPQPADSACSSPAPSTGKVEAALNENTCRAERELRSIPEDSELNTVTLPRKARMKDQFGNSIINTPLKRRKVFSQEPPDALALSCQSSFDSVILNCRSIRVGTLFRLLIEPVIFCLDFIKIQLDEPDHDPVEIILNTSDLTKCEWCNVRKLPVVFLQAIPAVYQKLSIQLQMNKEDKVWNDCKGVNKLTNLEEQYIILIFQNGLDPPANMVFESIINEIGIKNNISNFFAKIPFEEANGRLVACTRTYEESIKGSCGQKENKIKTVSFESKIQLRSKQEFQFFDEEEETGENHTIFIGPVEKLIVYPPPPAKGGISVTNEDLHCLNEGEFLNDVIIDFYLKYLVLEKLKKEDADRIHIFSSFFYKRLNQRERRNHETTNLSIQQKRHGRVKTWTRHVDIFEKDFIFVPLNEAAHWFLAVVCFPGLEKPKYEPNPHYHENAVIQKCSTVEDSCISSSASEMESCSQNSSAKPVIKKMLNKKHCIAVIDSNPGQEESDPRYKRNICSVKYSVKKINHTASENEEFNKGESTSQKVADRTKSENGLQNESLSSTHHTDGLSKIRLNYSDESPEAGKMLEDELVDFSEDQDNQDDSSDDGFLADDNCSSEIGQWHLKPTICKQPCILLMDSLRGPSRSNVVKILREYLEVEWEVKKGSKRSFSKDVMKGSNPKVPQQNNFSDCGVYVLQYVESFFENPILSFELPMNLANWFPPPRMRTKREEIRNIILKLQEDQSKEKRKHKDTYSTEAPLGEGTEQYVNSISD

[8] = molecular target: T4, Sentrin-specific protease 8 (Homo sapiens, UniProt Q96LD8); assay type: functional;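 further: luminescence read-out of SENP8 inhibition, dose-response confirmation following an ultra-high-throughput screen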
T4 sequence (Q96LD8 whole entry): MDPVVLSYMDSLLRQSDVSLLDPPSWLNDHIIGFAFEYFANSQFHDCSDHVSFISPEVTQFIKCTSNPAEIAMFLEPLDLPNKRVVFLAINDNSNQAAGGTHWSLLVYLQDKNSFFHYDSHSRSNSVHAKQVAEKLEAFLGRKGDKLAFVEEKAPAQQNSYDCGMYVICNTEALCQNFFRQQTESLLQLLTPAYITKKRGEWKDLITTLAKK

Vero = assay: cells; assay type: functional; conditions: Chlorocebus sabaeus
Cytochrome P450 2D6 = Cytochrome P450 2D6 (Homo sapiens, UniProt P10635);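 further: CYP2D6 member of a cytochrome P450 panel assay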
Cytochrome P450 3A4 = Cytochrome P450 3A4 (Homo sapiens, UniProt P08684);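 further: CYP3A4 tested as one member of a cytochrome P450 panel screen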
Cytochrome P450 2C9 [9] = molecular target: T5, Cytochrome P450 2C9 (Homo sapiens, UniProt P11712)
Large T antigen = Large T antigen (Simian virus 40, UniProt P03070); assay type: functional, Betapolyomavirus macacae;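 further: Confirmatory-stage PubChem screen for compounds that inhibit SV40 T antigen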
[10] = Luminescence Cell-Based Dose Confirmation HTS to Identify Activators of 5'UTR Stem-Loop Driven Alpha-Synuclein mRNA Translation in H4 Neuroglioblastoma Cells. [Related pubchem assays: 1829 (Project Summary), 1814 (Primary HTS)]; assay type: functional
[11] = Luminescence Cell-Based Dose Response HTS to Identify Activators of Luciferase Translation or Activity in H4 […] Cells. [Related pubchem assays: 1829 (Project Summary), 1814 (Primary HTS)]; assay type: functional
H4 = assay: Luminescence Cell-Based Dose Response HTS to Identify Activators of 5'UTR Stem-Loop Driven Prion Protein mRNA Translation in H4 Neuroglioblastoma Cells. [Related pubchem assays: 1829 (Project Summary), 1814 (Primary HTS)]; assay type: functional; conditions: Homo sapiens
Cytochrome P450 2C9 [12] = molecular target: T5, Cytochrome P450 2C9; remark: listed apart in the source

T5 sequence (P11712 whole entry): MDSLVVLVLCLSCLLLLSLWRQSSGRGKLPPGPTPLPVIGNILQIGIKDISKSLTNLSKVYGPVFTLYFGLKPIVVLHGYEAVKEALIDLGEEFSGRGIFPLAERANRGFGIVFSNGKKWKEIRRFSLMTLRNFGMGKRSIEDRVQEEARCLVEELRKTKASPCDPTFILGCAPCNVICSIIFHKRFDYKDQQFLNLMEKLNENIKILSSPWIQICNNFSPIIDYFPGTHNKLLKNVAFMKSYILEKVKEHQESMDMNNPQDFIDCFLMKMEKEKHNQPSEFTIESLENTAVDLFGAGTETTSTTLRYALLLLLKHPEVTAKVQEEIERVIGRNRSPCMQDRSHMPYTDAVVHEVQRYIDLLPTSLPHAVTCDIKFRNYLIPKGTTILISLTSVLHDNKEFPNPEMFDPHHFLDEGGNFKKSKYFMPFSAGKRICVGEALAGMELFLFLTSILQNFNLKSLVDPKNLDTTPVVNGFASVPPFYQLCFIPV
Cytochrome P450 3A4, sequence (P08684 whole entry): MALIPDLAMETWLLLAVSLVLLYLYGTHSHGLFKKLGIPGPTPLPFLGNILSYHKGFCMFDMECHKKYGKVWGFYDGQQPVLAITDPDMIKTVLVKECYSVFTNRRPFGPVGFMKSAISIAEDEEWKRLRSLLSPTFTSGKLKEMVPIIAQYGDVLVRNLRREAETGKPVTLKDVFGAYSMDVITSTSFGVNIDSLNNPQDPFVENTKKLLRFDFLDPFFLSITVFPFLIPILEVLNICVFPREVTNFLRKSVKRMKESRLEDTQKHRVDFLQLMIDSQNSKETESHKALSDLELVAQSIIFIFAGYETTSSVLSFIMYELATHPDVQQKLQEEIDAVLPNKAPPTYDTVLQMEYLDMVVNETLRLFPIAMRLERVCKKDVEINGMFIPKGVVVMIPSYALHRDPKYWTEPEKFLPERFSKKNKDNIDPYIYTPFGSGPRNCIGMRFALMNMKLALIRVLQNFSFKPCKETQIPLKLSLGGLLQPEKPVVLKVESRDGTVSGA
Large T antigen, sequence (P03070 whole entry): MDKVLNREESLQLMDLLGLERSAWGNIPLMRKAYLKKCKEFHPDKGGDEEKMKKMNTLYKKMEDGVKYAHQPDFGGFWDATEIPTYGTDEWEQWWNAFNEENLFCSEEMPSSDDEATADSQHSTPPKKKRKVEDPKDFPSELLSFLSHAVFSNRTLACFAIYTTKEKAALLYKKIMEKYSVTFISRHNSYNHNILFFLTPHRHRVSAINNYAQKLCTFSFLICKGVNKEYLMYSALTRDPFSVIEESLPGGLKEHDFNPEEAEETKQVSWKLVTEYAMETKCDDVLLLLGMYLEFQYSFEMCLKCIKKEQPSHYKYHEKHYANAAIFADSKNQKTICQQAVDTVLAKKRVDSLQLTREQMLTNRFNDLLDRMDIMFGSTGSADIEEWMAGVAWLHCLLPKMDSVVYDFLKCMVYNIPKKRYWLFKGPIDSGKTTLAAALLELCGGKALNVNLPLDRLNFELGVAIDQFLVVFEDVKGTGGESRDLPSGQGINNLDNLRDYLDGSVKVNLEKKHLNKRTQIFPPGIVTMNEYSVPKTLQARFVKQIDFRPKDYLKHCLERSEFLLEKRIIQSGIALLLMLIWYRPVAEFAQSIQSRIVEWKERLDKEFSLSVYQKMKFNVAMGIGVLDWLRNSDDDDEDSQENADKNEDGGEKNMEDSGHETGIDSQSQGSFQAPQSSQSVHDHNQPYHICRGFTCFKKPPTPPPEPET
Cytochrome P450 2D6, sequence (P10635 whole entry): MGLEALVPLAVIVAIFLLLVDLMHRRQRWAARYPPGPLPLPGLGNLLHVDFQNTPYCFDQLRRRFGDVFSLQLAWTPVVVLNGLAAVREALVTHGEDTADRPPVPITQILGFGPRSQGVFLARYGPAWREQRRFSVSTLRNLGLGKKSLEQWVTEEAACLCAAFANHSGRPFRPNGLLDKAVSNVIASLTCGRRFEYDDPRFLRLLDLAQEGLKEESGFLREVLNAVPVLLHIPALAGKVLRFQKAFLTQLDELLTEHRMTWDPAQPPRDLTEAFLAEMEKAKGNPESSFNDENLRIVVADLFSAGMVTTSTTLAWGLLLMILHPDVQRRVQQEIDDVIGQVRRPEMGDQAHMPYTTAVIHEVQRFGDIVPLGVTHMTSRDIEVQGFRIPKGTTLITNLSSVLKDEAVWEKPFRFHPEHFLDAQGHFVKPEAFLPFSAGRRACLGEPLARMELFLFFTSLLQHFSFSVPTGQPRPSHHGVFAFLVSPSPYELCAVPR

| Compound | AC50 (Escherichia coli) | IC50 (Caspase-3) | IC50 [6] | IC50 [7] | IC50 [8] | also measured |
| --- | --- | --- | --- | --- | --- | --- |
| CCC(C)n1nccc1NC(=O)C(C)Cl (centres undefined) | 31.4 µM (active) |  |  |  |  |  |
| COCCCNC(=O)Cc1c(C)c2c(cc(C)c3c(C(C)(C)C)coc32)oc1=O |  |  |  |  |  | EC50 (BJ [1]): 8.02 µM (inconclusive); EC50 (BJ [2]): 19.3 µM (inconclusive); EC50 (BJ [3]): 4.18 µM (active); EC50 [4]: 10.6 µM (inconclusive); EC50 (BJ [5]): 0.473 µM (active) |
| COc1ccc(NC(=O)C2CCN(Cc3cnn(-c4ccccc4)c3-n3cccc3)CC2)cc1OC | > 150 µM (inactive) |  |  |  |  |  |
| Fc1ccc(NC(=S)N2N=CCC2c2ccccc2)cc1 (centres undefined) |  | 15.9 µM (active) | 11.8 µM (active) | 39.3 µM (active) | 38.3 µM (active) |  |
| COc1ccc(Nc2nc(-c3ccccc3)nc3ccccc23)cc1S(=O)(=O)N1CCOCC1 |  |  |  |  |  | CC50 (Vero): > 25 µM (active) |
| Cc1cc(C(=O)N2CCN(c3ccccc3)CC2)no1 | 28.2 µM (active) |  |  |  |  |  |
| CN(C)C(=O)N1CCCC(C(=O)NCCc2ccccc2)C1 (centres undefined) |  |  |  |  |  | AC50 (Cytochrome P450 2D6): 10 µM (inconclusive); AC50 (Cytochrome P450 3A4): 39.8 µM (inconclusive); AC50 (Cytochrome P450 2C9 [9]): inconclusive |
| Cc1cc(C)c2c(CCl)cc(=O)oc2c1 |  |  |  |  |  | EC50 (BJ [1]): 0.784 µM (active); EC50 (BJ [2]): 0.676 µM (active); IC50 (Large T antigen): 9.73 µM (active); EC50 (BJ [3]): 0.584 µM (inconclusive); EC50 [4]: 0.762 µM (active); EC50 (BJ [5]): 0.296 µM (active) |
| Clc1ccc(-c2cc3ccccc3[nH]2)cc1 |  | 16 µM (active) | 8.48 µM (active) | 18 µM (active) | 19.9 µM (active) | EC50 [10]: 3.77 µM (active); EC50 [11]: 106 µM (active); EC50 (H4): 9.01 µM (active); AC50 (Cytochrome P450 2C9 [12]): 11.2 µM (inconclusive) |
| Cc1cc(-n2c(C)cc(C(=O)COc3ccc(F)c(F)c3)c2C)no1 |  | 21 µM (active) | 8.26 µM (active) | 22.7 µM (active) | 20.4 µM (active) |  |
| CCn1cc(C(=O)NCCCO)c(=O)c2cc(F)c(N3CCN(C)CC3)cc21 | 2.5 µM (active) |  |  |  |  |  |
| C/C(=N/OC(=O)c1ccccc1Br)c1ccc(C)cc1 |  | 31.3 µM (active) | 7.72 µM (active) | 28.1 µM (active) | 46.9 µM (active) |  |
